According to patent US20120034193A1, “TREATMENT OF NEUROTROPHIC FACTOR MEDIATED DISORDERS” (priority 2009, published 2012):

Experiments:
Imidazoline I2, central = test: Binding assay; design: species or system Rat; settings: smilagenin 1 μM
Protocol: (§1) The receptor binding was investigated using the following method: Sarsasapogenin was incubated with tissue or cell homogenate that expressed the receptor of interest and a known concentration a radiolabelled compound with affinity for the receptor of interest. After the incubation period the non-bound radiolabelled compound was removed and the amount of specific binding was quantified. The amount of specific binding in the presence and absence of sarsasapogenin were compared and the percent inhibition of the binding of the radiolabelled compound by sarsasapogenin was calculated. The source of the receptor, the incubation conditions, the radiolabelled compound used varied depending on each specific assay.
(§2) Using the same methods as described above, the binding of smilagenin (1 μM) to the receptors listed in Table 2 below, and the effect of smilagenin on the activity of the enzymes listed in Table 2 below, were investigated.

Glutamate, AMPA = test: Binding assay; design: species or system Rat; settings: smilagenin 1 μM
Protocol: as §1, §2

[1] = test system: Calcium Channel L-Type, Dihydropyridine; test: Binding assay; design: species or system Rat; settings: smilagenin 1 μM
Protocol: as §1, §2

[2] = test system: Calcium Channel L-Type, Benzothiazepine; test: Binding assay; design: species or system Rat; settings: smilagenin 1 μM
Protocol: as §1, §2

[3] = test system: Inositol trisphosphate IP3; test: Binding assay; design: species or system Rat; settings: smilagenin 1 μM
Protocol: as §1, §2

Glutamate, NMDA, Agonism = test: Binding assay; design: species or system Rat; settings: smilagenin 1 μM
Protocol: as §1, §2

Glutamate, Kainate = test: Binding assay; design: species or system Rat; settings: smilagenin 1 μM
Protocol: as §1, §2

Sodium Channel, Site 2 = test: Binding assay; design: species or system Rat; settings: smilagenin 1 μM
Protocol: as §1, §2

[4] = test system: Glutamate, NMDA, Phencyclidine; test: Binding assay; design: species or system Rat; settings: smilagenin 1 μM
Protocol: as §1, §2

Potassium Channel [SKCA] = test: Binding assay; design: species or system Rat; settings: smilagenin 1 μM
Protocol: as §1, §2

Rolipram = test: Binding assay; design: species or system Rat; settings: smilagenin 1 μM
Protocol: as §1, §2

Thyroid Hormone = test: Binding assay; design: species or system Rat; settings: smilagenin 1 μM
Protocol: as §1, §2

[5] = test system: GABAA Flunitrazepam, Central; test: Binding assay; design: species or system Rat; settings: smilagenin 1 μM
Protocol: as §1, §2

[6] = test system: Calcium Channel L-Type, Phenylalkylamine; test: Binding assay; design: species or system Rat; settings: smilagenin 1 μM
Protocol: as §1, §2

Transporter, GABA = test: Binding assay; design: species or system Rat; settings: smilagenin 1 μM
Protocol: as §1, §2

[7] = test system: Glutamate, NMDA, Polyamine; test: Binding assay; design: species or system Rat; settings: smilagenin 1 μM
Protocol: as §1, §2

Gabapentin = test: Binding assay; design: species or system Rat; settings: smilagenin 1 μM
Protocol: as §1, §2

Purinergic P2Y = test: Binding assay; design: species or system Rat; settings: smilagenin 1 μM
Protocol: as §1, §2

GDNF = test: Striatal GDNF in MPTP-lesioned mice (ELISA); assay type: in vivo, C57b1/6 RJ mice; settings: smilagenin 10 mg/kg/day oral, 60 days, striatum
Protocol: Seven-week old male C57b1/6 RJ mice (C57 mice) received daily injections 1-methyl-4-phenyl-1,2,3,6-tetrahydropyridine (MPTP, 25 mg/kg/day, i.p., for 5 consecutive days) and oral administration of smilagenin (10 mg/kg/day) or vehicle (hydroxylpropylmethylcellulose, HPMC 0.5% w/v containing tween-80 0.2% v/v) for 60 days after which time their brains were removed for quantification of striatal levels of GDNF and BDNF using an ELISA and of dopamine transporter (DAT) levels using [I^125]-RTI binding. DAT is a marker for neuronal damage to dopaminergic neurones.

C[C@@H]1CC[C@@]2(OC1)O[C@H]1C[C@H]3[C@@H]4CC[C@@H]5C[C@@H](O)CC[C@]5(C)[C@H]4CC[C@]3(C)[C@H]1[C@@H]2C [Smilagenin, smilagenin]
Effect (%) (Imidazoline I2, central): NS (NS = No significant response. Significance was taken as ≧30% stimulation or inhibition) | Effect (%) (Glutamate, AMPA): NS (NS = No significant response. Significance was taken as ≧30% stimulation or inhibition) | Effect (%) [1]: NS (NS = No significant response. Significance was taken as ≧30% stimulation or inhibition) | Effect (%) [2]: NS (NS = No significant response. Significance was taken as ≧30% stimulation or inhibition) | Effect (%) [3]: NS (NS = No significant response. Significance was taken as ≧30% stimulation or inhibition) | Effect (%) (Glutamate, NMDA, Agonism): NS (NS = No significant response. Significance was taken as ≧30% stimulation or inhibition) | Effect (%) (Glutamate, Kainate): NS (NS = No significant response. Significance was taken as ≧30% stimulation or inhibition) | Effect (%) (Sodium Channel, Site 2): NS (NS = No significant response. Significance was taken as ≧30% stimulation or inhibition) | Effect (%) [4]: NS (NS = No significant response. Significance was taken as ≧30% stimulation or inhibition) | Effect (%) (Potassium Channel [SKCA]): NS (NS = No significant response. Significance was taken as ≧30% stimulation or inhibition) | Effect (%) (Rolipram): NS (NS = No significant response. Significance was taken as ≧30% stimulation or inhibition) | Effect (%) (Thyroid Hormone): NS (NS = No significant response. Significance was taken as ≧30% stimulation or inhibition) | Effect (%) [5]: NS (NS = No significant response. Significance was taken as ≧30% stimulation or inhibition) | Effect (%) [6]: NS (NS = No significant response. Significance was taken as ≧30% stimulation or inhibition) | Effect (%) (Transporter, GABA): NS (NS = No significant response. Significance was taken as ≧30% stimulation or inhibition) | Effect (%) [7]: NS (NS = No significant response. Significance was taken as ≧30% stimulation or inhibition) | Effect (%) (Gabapentin): NS (NS = No significant response. Significance was taken as ≧30% stimulation or inhibition) | Effect (%) (Purinergic P2Y): NS (NS = No significant response. Significance was taken as ≧30% stimulation or inhibition) | GDNF (% increase above MPTP mice) (GDNF): 372 ± 92 % | GDNF (pg/mg tissue) (GDNF): 275.31 ± 59.62 pg/mg tissue
